Assay results published in patent publication US8802597B2, “Herbicidal pyrimidines” (E I du Pont de Nemours and Company, priority 2003, dated 2014).

What was measured:
Format in all cases: in vivo
[1] = tested on: early watergrass (Echinochloa oryzoides); experiment: Test E flooded paddy water application; details: Flood, 21 days, scale 0 to 100 (0 no effect, 100 complete control)
Procedure, shortened: (§1)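 Response scored visually on a 0–100 scale (100 = complete control) at 21 days against untreated pots. Treatment was into paddy water 3 cm deep over silt loam, with plants at the 2.0–2.5-leaf stage, grown under 16-h light at 29.5/26.7 °C day/night.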

[2] = tested on: bearded (brdd.) sprangletop (Leptochloa fusca ssp. fascicularis); experiment: Test E flooded paddy water application; details: Flood, 21 days, scale 0 to 100 (0 no effect, 100 complete control)
Procedure, shortened: as §1

[3] = tested on: water seeded rice seedlings (Oryza sativa cv. ‘Japonica-M202’); experiment: Test E flooded paddy water application; details: Flood, 21 days, scale 0 to 100 (0 no effect, 100 complete control)
Procedure, shortened: as §1

[4] = tested on: junglerice (Echinochloa colona); experiment: Test E flooded paddy water application; details: Flood, 21 days, scale 0 to 100 (0 no effect, 100 complete control)
Procedure, shortened: as §1

[5] = tested on: purple redstem (Ammannia coccinea); experiment: Test E flooded paddy water application; details: Flood, 21 days, scale 0 to 100 (0 no effect, 100 complete control)
Procedure, shortened: as §1

[6] = tested on: transplanted rice seedlings (Oryza sativa cv. ‘Japonica-M202’); experiment: Test E flooded paddy water application; details: Flood, 21 days, scale 0 to 100 (0 no effect, 100 complete control)
Procedure, shortened: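 Greenhouse pots of Tama silt loam with weeds and rice at 2.0–2.5-leaf stage, flooded to 3 cm; compounds applied directly into paddy water, depth maintained. Visual rating versus untreated controls after 21 days, 0 (no effect) to 100 (complete control); 29.5/26.7 °C, 16-h photoperiod.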

[7] = tested on: barnyardgrass (Echinochloa crus-galli); experiment: Test E flooded paddy water application; details: Flood, 21 days, scale 0 to 100 (0 no effect, 100 complete control)
Procedure, shortened: as §1

[8] = tested on: late watergrass (Echinochloa oryzicola); experiment: Test E flooded paddy water application; details: Flood, 21 days, scale 0 to 100 (0 no effect, 100 complete control)
Procedure, shortened: as §1

[9] = tested on: smallflower umbrella sedge (Cyperus difformis); experiment: Test E flooded paddy water application; details: Flood, 21 days, scale 0 to 100 (0 no effect, 100 complete control)
Procedure, shortened: as §1

[10] = tested on: rice flatsedge (Cyperus iria); experiment: Test E flooded paddy water application; details: Flood, 21 days, scale 0 to 100 (0 no effect, 100 complete control)
Procedure, shortened: as §1

[11] = tested on: ducksalad (Heteranthera limosa); experiment: Test E flooded paddy water application; details: Flood, 21 days, scale 0 to 100 (0 no effect, 100 complete control)
Procedure, shortened: as §1

[12] = tested on: redroot pigweed (Amaranthus retroflexus); experiment: Test A pre/postemergence
Procedure, shortened: (§2)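 Pre/post greenhouse screen; loam/sand soil; solvent + surfactant formulation; pre = directed soil spray at planting, post = 1–2 leaf plants, 2–10 cm; ~10 d; visual 0–100 rating vs untreated.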

[13] = tested on: velvetleaf (Abutilon theophrasti); experiment: Test A pre/postemergence
Procedure, shortened: as §2

[14] = tested on: giant foxtail (Setaria faberi); experiment: Test A pre/postemergence
Procedure, shortened: as §2

[15] = tested on: barnyardgrass (Echinochloa crus-galli); experiment: Test A pre/postemergence
Procedure, shortened: as §2

[16] = tested on: morningglory (Ipomoea spp.); experiment: Test A pre/postemergence
Procedure, shortened: as §2

[17] = tested on: crabgrass (Digitaria sanguinalis); experiment: Test A pre/postemergence
Procedure, shortened: as §2

[18] = Postemergence, 125 g ai/ha, 0 to 100 scale (0 no effect, 100 complete control)
[19] = Postemergence, 500 g ai/ha, 0 to 100 scale (0 no effect, 100 complete control)
[20] = Preemergence, 125 g ai/ha, 0 to 100 scale where 0 is no effect and 100 is complete control, approximately ten days
[21] = Preemergence, 500 g ai/ha, 0 to 100 scale where 0 is no effect and 100 is complete control, approximately ten days

CCOC(=O)c1nc(-c2ccc(C)cc2)nc(N)c1Br [Compound 61]
0: Watergrass, Early plant response rating ([1]; 32 g ai/ha) | Watergrass, Early plant response rating ([1]; 64 g ai/ha) | Watergrass, Early plant response rating ([1]; 125 g ai/ha) | Rice, Water Seeded plant response rating ([3]; 32 g ai/ha) | Rice, Water Seeded plant response rating ([3]; 64 g ai/ha) | Rice, Water Seeded plant response rating ([3]; 125 g ai/ha) | Junglerice plant response rating ([4]; 32 g ai/ha) | Rice, Transplanted plant response rating ([6]; 32 g ai/ha) | Rice, Transplanted plant response rating ([6]; 64 g ai/ha) | Rice, Transplanted plant response rating ([6]; 125 g ai/ha) | Rice, Transplanted plant response rating ([6]; 250 g ai/ha) | Barnyardgrass plant response rating ([7]; 32 g ai/ha) | Barnyardgrass plant response rating ([7]; 64 g ai/ha) | Barnyardgrass plant response rating ([7]; 125 g ai/ha) | Barnyardgrass plant response rating ([7]; 250 g ai/ha) | Watergrass, Late plant response rating ([8]; 32 g ai/ha) | Flatsedge, Rice plant response rating ([10]; 32 g ai/ha) | Flatsedge, Rice plant response rating ([10]; 64 g ai/ha) | Plant response rating, Pigweed [12, 20] | Plant response rating, Velvetleaf [13, 20] | Plant response rating, Foxtail, Giant [14, 18] | Plant response rating, Foxtail, Giant [14, 20] | Plant response rating, Barnyardgrass [15, 20] | Plant response rating, Morningglory [16, 20] | Plant response rating, Crabgrass [17, 18] | Plant response rating, Crabgrass [17, 20]
85: Sedge, Umbrella plant response rating ([9]; 125 g ai/ha)
10: Rice, Water Seeded plant response rating ([3]; 250 g ai/ha) | Plant response rating, Foxtail, Giant [14, 21] | Plant response rating, Barnyardgrass [15, 21] | Plant response rating, Morningglory [16, 18]
100: Redstem plant response rating ([5]; 250 g ai/ha) | Redstem plant response rating ([5]; 500 g ai/ha) | Sedge, Umbrella plant response rating ([9]; 500 g ai/ha) | Ducksalad plant response rating ([11]; 32 g ai/ha) | Ducksalad plant response rating ([11]; 64 g ai/ha) | Ducksalad plant response rating ([11]; 125 g ai/ha) | Ducksalad plant response rating ([11]; 250 g ai/ha) | Ducksalad plant response rating ([11]; 500 g ai/ha) | Plant response rating, Velvetleaf [13, 19]
40: Flatsedge, Rice plant response rating ([10]; 125 g ai/ha) | Flatsedge, Rice plant response rating ([10]; 250 g ai/ha)
25: Watergrass, Early plant response rating ([1]; 500 g ai/ha) | Junglerice plant response rating ([4]; 250 g ai/ha) | Junglerice plant response rating ([4]; 500 g ai/ha) | Rice, Transplanted plant response rating ([6]; 500 g ai/ha) | Watergrass, Late plant response rating ([8]; 500 g ai/ha) | Plant response rating, Pigweed [12, 18] | Plant response rating, Foxtail, Giant [14, 19]
30: Plant response rating, Pigweed [12, 21] | Plant response rating, Morningglory [16, 19] | Plant response rating, Crabgrass [17, 21]
80: Redstem plant response rating ([5]; 64 g ai/ha) | Redstem plant response rating ([5]; 125 g ai/ha)
5: Plant response rating, Crabgrass [17, 19]
20: Watergrass, Early plant response rating ([1]; 250 g ai/ha) | Junglerice plant response rating ([4]; 64 g ai/ha) | Junglerice plant response rating ([4]; 125 g ai/ha) | Watergrass, Late plant response rating ([8]; 64 g ai/ha) | Watergrass, Late plant response rating ([8]; 125 g ai/ha) | Watergrass, Late plant response rating ([8]; 250 g ai/ha) | Sedge, Umbrella plant response rating ([9]; 32 g ai/ha)
95: Sedge, Umbrella plant response rating ([9]; 250 g ai/ha) | Flatsedge, Rice plant response rating ([10]; 500 g ai/ha)
60: Sprangletop, Brdd. plant response rating ([2]; 125 g ai/ha) | Plant response rating, Barnyardgrass [15, 19]
70: Plant response rating, Velvetleaf [13, 18]
35: Sprangletop, Brdd. plant response rating ([2]; 32 g ai/ha) | Sprangletop, Brdd. plant response rating ([2]; 64 g ai/ha) | Rice, Water Seeded plant response rating ([3]; 500 g ai/ha) | Plant response rating, Barnyardgrass [15, 18]
50: Plant response rating, Pigweed [12, 19] | Plant response rating, Velvetleaf [13, 21]
75: Sedge, Umbrella plant response rating ([9]; 64 g ai/ha)
15: Plant response rating, Morningglory [16, 21]
65: Sprangletop, Brdd. plant response rating ([2]; 250 g ai/ha) | Sprangletop, Brdd. plant response rating ([2]; 500 g ai/ha) | Redstem plant response rating ([5]; 32 g ai/ha) | Barnyardgrass plant response rating ([7]; 500 g ai/ha)
